{"source": "patent US9428456B2", "about": "“1-[m-carboxamido(hetero)aryl-methyl]-heterocyclyl-carboxamide derivatives” (Actelion Pharmaceuticals Ltd., priority 2012, dated 2016)", "data": [{"molecular_target": "CXCR7 (Homo sapiens (Human), UniProt P25106)", "sequence (P25106 whole entry, the tested form may be a part)": "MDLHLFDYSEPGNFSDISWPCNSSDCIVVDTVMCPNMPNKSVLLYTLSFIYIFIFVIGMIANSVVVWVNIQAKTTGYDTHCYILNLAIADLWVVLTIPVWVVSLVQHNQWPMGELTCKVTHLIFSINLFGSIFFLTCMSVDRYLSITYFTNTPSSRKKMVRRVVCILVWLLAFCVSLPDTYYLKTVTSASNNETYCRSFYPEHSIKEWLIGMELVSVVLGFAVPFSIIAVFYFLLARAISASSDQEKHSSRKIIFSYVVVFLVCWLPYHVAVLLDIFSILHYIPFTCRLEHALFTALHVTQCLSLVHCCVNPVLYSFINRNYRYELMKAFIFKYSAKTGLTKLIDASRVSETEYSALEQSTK", "sequence (P32121 whole entry partner, the tested form may be a part)": "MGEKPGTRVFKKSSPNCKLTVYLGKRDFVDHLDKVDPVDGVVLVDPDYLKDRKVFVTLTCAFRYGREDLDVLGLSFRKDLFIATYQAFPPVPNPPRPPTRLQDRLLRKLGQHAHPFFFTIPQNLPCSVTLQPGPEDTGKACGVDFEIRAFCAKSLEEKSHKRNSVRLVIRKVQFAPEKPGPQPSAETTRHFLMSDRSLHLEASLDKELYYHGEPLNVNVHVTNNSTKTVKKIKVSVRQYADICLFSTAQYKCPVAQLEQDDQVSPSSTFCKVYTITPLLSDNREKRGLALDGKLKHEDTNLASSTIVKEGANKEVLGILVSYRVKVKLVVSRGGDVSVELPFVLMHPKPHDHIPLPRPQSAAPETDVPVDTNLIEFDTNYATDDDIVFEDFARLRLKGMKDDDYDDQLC", "assay": "PathHunter CHO-K1 CXCR7 b-arrestin assay (agonistic activity)", "assay_type": "cell-based", "settings": "PathHunter CHO-K1 CXCR7 b-arrestin cell line", "outline": "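CHO-K1 cells co-expressing ProLink-tagged CXCR7 and EA-fused β-arrestin 2 (enzyme fragment complementation); compounds added in HBSS/20 mM HEPES/0.2% BSA after 3–4 h in OPTIMEM, 90 min at 37 °C. Chemiluminescent β-gal signal read after 1 h detection at room temperature; EC50 reported as geometric mean of several measurements.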", "units": {"EC50": "nM"}, "values": [{"smiles": "O=C(Nc1cccc(CN2CCC(C(=O)NC3CCCC3)CC2)c1)c1ccc(C(F)(F)F)cn1", "note": "[Example 1.210]", "EC50": 0.6}, {"smiles": "O=C(Nc1cccc(CN2CCC(C(=O)NC3CCCC3)CC2)c1)c1cnc2ccccc2c1", "note": "[Example 1.211]", "EC50": 3}, {"smiles": "O=C(Nc1cccc(CN2CCC(C(=O)NC3CCCC3)CC2)c1)c1cncc(C(F)(F)F)c1", "note": "[Example 1.212]", "EC50": 2}, {"smiles": "O=C(Nc1cccc(CN2CCC(C(=O)NC3CCCC3)CC2)c1)c1ccc2ncccc2c1", "note": "[Example 1.213]", "EC50": 3}, {"smiles": "O=C(Nc1cccc(CN2CCC(C(=O)NC3CCCC3)CC2)c1)c1cccnc1C(F)(F)F", "note": "[Example 1.214]", "EC50": 109}, {"smiles": "O=C(Nc1cccc(CN2CCC(C(=O)NC3CCCC3)CC2)c1)c1cncc(F)c1", "note": "[Example 1.215]", "EC50": 2}, {"smiles": "O=C(Nc1cccc(CN2CCC(C(=O)NC3CCCC3)CC2)c1)c1cc(C(F)(F)F)ccn1", "note": "[Example 1.216]", "EC50": 7}, {"smiles": "O=C(Nc1ccc(Cl)c(CN2CCC(C(=O)NC3CCCC3)CC2)c1)c1ccccc1", "note": "[Example 1.217]", "EC50": 0.4}, {"smiles": "O=C(Nc1ccc(Cl)c(CN2CCC(C(=O)NC3CCCC3)CC2)c1)c1cccc(C(F)(F)F)n1", "note": "[Example 1.218]", "EC50": 2}, {"smiles": "O=C(Nc1ccc(Cl)c(CN2CCC(C(=O)NC3CCCC3)CC2)c1)c1ccc(F)cc1", "note": "[Example 1.219]", "EC50": 0.9}, {"smiles": "O=C(Nc1ccc(Cl)c(CN2CCC(C(=O)NC3CCCC3)CC2)c1)c1ccc(C(F)(F)F)cn1", "note": "[Example 1.220]", "EC50": 1}, {"smiles": "O=C(Nc1ccc(Cl)c(CN2CCC(C(=O)NC3CCCC3)CC2)c1)c1ccc2ncccc2c1", "note": "[Example 1.221]", "EC50": 1}, {"smiles": "O=C(Nc1ccc(Cl)c(CN2CCC(C(=O)NC3CCCC3)CC2)c1)c1cnc2ccccc2c1", "note": "[Example 1.222]", "EC50": 3}, {"smiles": "CC(C)(C)NC(=O)C1CCN(Cc2cccc(NC(=O)c3ccc(F)cc3)c2)CC1", "note": "[Example 1.223]", "EC50": 0.5}, {"smiles": "O=C(Nc1ccc(Cl)c(CN2CCC(C(=O)NC3CCCC3)CC2)c1)c1ccc(F)cn1", "note": "[Example 1.224]", "EC50": 0.4}, {"smiles": "O=C(Nc1ccc(Cl)c(CN2CCC(C(=O)NC3CCCC3)CC2)c1)c1cncc(C(F)(F)F)c1", "note": "[Example 1.225]", "EC50": 0.8}, {"smiles": "Cc1cncc(C(=O)Nc2ccc(Cl)c(CN3CCC(C(=O)NC4CCCC4)CC3)c2)c1", "note": "[Example 1.226]", "EC50": 2}, {"smiles": "CC(C)(C)NC(=O)C1CCN(Cc2cccc(NC(=O)c3cccc(C(F)(F)F)n3)c2)CC1", "note": "[Example 1.228]", "EC50": 1}, {"smiles": "CC(C)(C)NC(=O)C1CCN(Cc2cccc(NC(=O)c3ccc(C(F)(F)F)cn3)c2)CC1", "note": "[Example 1.229]", "EC50": 0.5}, {"smiles": "CC(C)(C)NC(=O)C1CCN(Cc2cccc(NC(=O)c3cncc(C(F)(F)F)c3)c2)CC1", "note": "[Example 1.230]", "EC50": 1}, {"smiles": "CC(C)(C)NC(=O)C1CCN(Cc2cccc(NC(=O)c3cccnc3C(F)(F)F)c2)CC1", "note": "[Example 1.231]", "EC50": 99}, {"smiles": "CC(C)(C)NC(=O)C1CCN(Cc2cccc(NC(=O)c3cnc4ccccc4n3)c2)CC1", "note": "[Example 1.232]", "EC50": 3}, {"smiles": "CC(C)(C)NC(=O)C1CCN(Cc2cccc(NC(=O)c3cnc4ccccc4c3)c2)CC1", "note": "[Example 1.233]", "EC50": 2}, {"smiles": "CC(C)(C)NC(=O)C1CCN(Cc2cccc(NC(=O)c3ccc4cnccc4n3)c2)CC1", "note": "[Example 1.234]", "EC50": 2}, {"smiles": "CC(C)(C)NC(=O)C1CCN(Cc2cccc(NC(=O)c3ccc4ccccc4n3)c2)CC1", "note": "[Example 1.235]", "EC50": 0.9}, {"smiles": "CC(C)(C)NC(=O)C1CCN(Cc2cccc(NC(=O)c3cnc4cc(Cl)ccc4c3)c2)CC1", "note": "[Example 1.236]", "EC50": 5}, {"smiles": "CC(C)(C)NC(=O)C1CCN(Cc2cccc(NC(=O)c3cccc(C(F)(F)F)c3)c2)CC1", "note": "[Example 1.237]", "EC50": 4}, {"smiles": "CC(C)(C)NC(=O)C1CCN(Cc2cccc(NC(=O)c3ccc(C(F)(F)F)cc3)c2)CC1", "note": "[Example 1.238]", "EC50": 4}, {"smiles": "CC(C)(C)NC(=O)C1CCN(Cc2cccc(NC(=O)c3ccccc3C(F)(F)F)c2)CC1", "note": "[Example 1.239]", "EC50": 17}, {"smiles": "CC(C)(C)NC(=O)C1CCN(Cc2cccc(NC(=O)c3cncc(C4CC4)c3)c2)CC1", "note": "[Example 1.240]", "EC50": 3}]}]}
